For this assay, the target named is T1, HGFR (Homo sapiens, UniProt P08581).
T1 construct: purchased Upstate 14-526
In words: HGFR continuous-coupled spectrophotometric assay. Particulars: for inhibition at 0.05 µM: Table 5, percent c-MET inhibition at 50 nM. The assay is classed as biochemical.

Setting [1] is: Table 6, percent c-MET inhibition at 1 μM, read-out: % inhibition.

The structures appear in SMILES notation. Read-outs that look alike come from different tables or passages of the source.

T1 sequence (P08581 974-1390 limits assumed): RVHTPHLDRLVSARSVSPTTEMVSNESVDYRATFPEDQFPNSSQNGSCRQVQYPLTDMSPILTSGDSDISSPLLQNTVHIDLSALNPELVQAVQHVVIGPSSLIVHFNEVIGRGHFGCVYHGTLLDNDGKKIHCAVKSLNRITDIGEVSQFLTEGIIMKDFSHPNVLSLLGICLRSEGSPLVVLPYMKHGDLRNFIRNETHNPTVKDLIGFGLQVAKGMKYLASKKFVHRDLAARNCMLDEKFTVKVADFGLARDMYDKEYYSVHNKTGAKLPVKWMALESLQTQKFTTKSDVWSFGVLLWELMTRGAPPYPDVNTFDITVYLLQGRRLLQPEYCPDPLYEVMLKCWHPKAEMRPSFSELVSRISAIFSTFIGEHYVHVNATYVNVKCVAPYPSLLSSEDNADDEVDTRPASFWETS

As to `CC(Oc1cc(-c2ccc(C(=O)N3CCCC(C(N)=O)C3)cc2)cnc1N)c1c(Cl)ccc(F)c1Cl` (stereo not shown), testing at 0.05 µM gave an inhibition of 84%.

Regarding `CC(Oc1cc(-c2ccc(C(=O)N[C@H](CO)c3ccccc3)cc2)cnc1N)c1c(Cl)ccc(F)c1Cl` (stereo partly shown), the inhibition at 0.05 µM stood at 69%.

Compound `CC(Oc1cc(-c2ccc(C(=O)N3CCCC(O)C3)cc2)cnc1N)c1c(Cl)ccc(F)c1Cl` (stereo not shown) displayed an inhibition at 0.05 µM of 85%. For `COc1ccccc1CC(C)N(C)C(=O)c1ccc(-c2cnc(N)c(OC(C)c3c(Cl)ccc(F)c3Cl)c2)cc1` (stereo not shown), the inhibition at 0.05 µM was 55%. In turn, `CC(Oc1cc(-c2ccc(C(=O)N3CCCC(CO)C3)cc2)cnc1N)c1c(Cl)ccc(F)c1Cl` (stereo not shown) displayed an inhibition at 0.05 µM of 84%. The compound `COc1ccc(C(NC(=O)c2ccc(-c3cnc(N)c(OC(C)c4c(Cl)ccc(F)c4Cl)c3)cc2)C2CC2)cc1` (stereo not shown) came in with an inhibition at 0.05 µM of 67%.

As for `CC(=O)N(C)C1CCN(C(=O)c2ccc(-c3cnc(N)c(OC(C)c4c(Cl)ccc(F)c4Cl)c3)cc2)C1` (stereo not shown), the inhibition at 0.05 µM is 70%. Compound `CC(=O)NC1CCN(C(=O)c2ccc(-c3cnc(N)c(OC(C)c4c(Cl)ccc(F)c4Cl)c3)cc2)C1` (stereo not shown) came in with an inhibition at 0.05 µM of 77%. Take `CC(Cc1ccc(Cl)cc1)NC(=O)c1ccc(-c2cnc(N)c(OC(C)c3c(Cl)ccc(F)c3Cl)c2)cc1` (stereo not shown): at 0.05 µM the inhibition was 58%. Still for that read-out and setting: with `CC(Oc1cc(-c2ccc(C(=O)N[C@H]3C[C@@H]3c3ccccc3)cc2)cnc1N)c1c(Cl)ccc(F)c1Cl` (stereo partly shown) the figure was 65%; with `CC(Oc1cc(-c2ccc(C(=O)N[C@H](CO)C(C)C)cc2)cnc1N)c1c(Cl)ccc(F)c1Cl` (stereo partly shown), 74%.

Consider `CC(Oc1cc(-c2ccc(C(=O)NC[C@@H]3CCCC[C@H]3O)cc2)cnc1N)c1c(Cl)ccc(F)c1Cl` (stereo partly shown), for which the inhibition at 0.05 µM is 67%. `CC(Oc1cc(-c2ccc(C(=O)N3CCNC(=O)C3C)cc2)cnc1N)c1c(Cl)ccc(F)c1Cl` (stereo not shown) returned an inhibition at 0.05 µM of 86%. Still for that read-out and setting: with `CC(Oc1cc(-c2ccc(C(=O)NC[C@H](O)c3ccccc3)cc2)cnc1N)c1c(Cl)ccc(F)c1Cl` (stereo partly shown) the figure was 69%; with `CC(Oc1cc(-c2ccc(C(=O)NC(CO)C(C)C)cc2)cnc1N)c1c(Cl)ccc(F)c1Cl` (stereo not shown), 65%. In the case of `CC(Oc1cc(-c2ccc(C(=O)NC[C@H]3CCCO3)cc2)cnc1N)c1c(Cl)ccc(F)c1Cl` (stereo partly shown), 0.05 µM produced 60% inhibition. With `CCC(CO)NC(=O)c1ccc(-c2cnc(N)c(OC(C)c3c(Cl)ccc(F)c3Cl)c2)cc1` (stereo not shown), at 0.05 µM the inhibition was 73%. In turn, `CC(O)CCNC(=O)c1ccc(-c2cnc(N)c(OC(C)c3c(Cl)ccc(F)c3Cl)c2)cc1` (stereo not shown) yielded an inhibition at 0.05 µM of 77%. For `CC(Oc1cc(-c2ccc(C(=O)NC[C@@H](C)O)cc2)cnc1N)c1c(Cl)ccc(F)c1Cl` (stereo partly shown), the inhibition at 0.05 µM worked out at 79%. Compound `COC(=O)C(CO)NC(=O)c1ccc(-c2cnc(N)c(OC(C)c3c(Cl)ccc(F)c3Cl)c2)cc1` (stereo not shown) displayed an inhibition at 0.05 µM of 81%.

The compound `CCC1CCCCN1C(=O)c1ccc(-c2cnc(N)c(OC(C)c3c(Cl)ccc(F)c3Cl)c2)cc1` (stereo not shown) returned an inhibition at 0.05 µM of 56%.

Consider `CCC(COC)NC(=O)c1ccc(-c2cnc(N)c(OC(C)c3c(Cl)ccc(F)c3Cl)c2)cc1` (stereo not shown), for which at 0.05 µM the inhibition was 59%. `CC(Oc1cc(-c2ccc(C(=O)NC(C)C(O)c3ccccc3)cc2)cnc1N)c1c(Cl)ccc(F)c1Cl` (stereo not shown) displayed an inhibition at 0.05 µM of 69%. Take `CC(NC(=O)c1ccc(-c2cnc(N)c(OC(C)c3c(Cl)ccc(F)c3Cl)c2)cc1)c1ccc(F)cc1` (stereo not shown): the inhibition at 0.05 µM was 56%. The compound `CCC(C)NC(=O)c1ccc(-c2cnc(N)c(OC(C)c3c(Cl)ccc(F)c3Cl)c2)cc1` (stereo not shown) had an inhibition at 0.05 µM of 64%. With `CC1CCCN(C(=O)c2ccc(-c3cnc(N)c(OC(C)c4c(Cl)ccc(F)c4Cl)c3)cc2)C1` (stereo not shown), at 0.05 µM the inhibition was 65%. Take `CC(Oc1cc(-c2ccc(C(=O)NCC(c3ccc[nH]3)C(F)(F)F)cc2)cnc1N)c1c(Cl)ccc(F)c1Cl` (stereo not shown): at 0.05 µM the inhibition was 70%. With `CC(Oc1cc(-c2ccc(C(=O)N3CCCCC3COc3ccccc3)cc2)cnc1N)c1c(Cl)ccc(F)c1Cl` (stereo not shown), the inhibition at 0.05 µM turned out to be 53%. Same read-out and setting: with `CC(Oc1cc(-c2ccc(C(=O)N3CCN(CCC#N)CC3)cc2)cnc1N)c1c(Cl)ccc(F)c1Cl` (stereo not shown) the figure was 77%; with `CC(Oc1cc(-c2ccc(C(=O)N3CCC(Cc4ccccc4)C3)cc2)cnc1N)c1c(Cl)ccc(F)c1Cl` (stereo not shown), 59%; with `CC(Oc1cc(-c2ccc(C(=O)N[C@H]3CC[C@H](CO)CC3)cc2)cnc1N)c1c(Cl)ccc(F)c1Cl` (stereo partly shown), 68%. `Cc1noc([C@H]2CC[C@H](CNC(=O)c3ccc(-c4cnc(N)c(OC(C)c5c(Cl)ccc(F)c5Cl)c4)cc3)CC2)n1` (stereo partly shown) had an inhibition at 0.05 µM of 51%. Take `CN1CCN(CCCNC(=O)c2cnc(N)c(OCc3c(Cl)cccc3Cl)c2)CC1`: under setting [1], the inhibition at 1 µM was 24%. Regarding `Nc1ncc(C(=O)NCCCO)cc1OCc1c(Cl)cccc1Cl`, under setting [1], the inhibition at 1 µM was found to be 26%. Regarding `Nc1ncc(C(=O)NCCN2CCOCC2)cc1OCc1c(Cl)cccc1Cl`, the inhibition at 1 µM under setting [1] is 31%. Still for that read-out and setting: next, `COc1ccc(C(NC(=O)c2cnc(N)c(OCc3c(Cl)cccc3Cl)c2)C2CC2)cc1` (stereo not shown): 27%; `Nc1ncc(C(=O)N2CCN(CCCO)CC2)cc1OCc1c(Cl)cccc1Cl`: 31%; `CC(C)(CO)CNC(=O)c1cnc(N)c(OCc2c(Cl)cccc2Cl)c1`: 39%. Consider `Nc1ncc(C(=O)N2CCN(CC(=O)N3CCOCC3)CC2)cc1OCc1c(Cl)cccc1Cl`, for which, under setting [1], the inhibition at 1 µM amounted to 31%.

Turning to `Nc1ncc(C(=O)NCCc2c[nH]c3ccc(Cl)cc23)cc1OCc1c(Cl)cccc1Cl`, under setting [1], the inhibition at 1 µM was found to be 36%. Regarding `CC(=O)N(C)C1CCN(C(=O)c2cnc(N)c(OCc3c(Cl)cccc3Cl)c2)C1` (stereo not shown), the inhibition at 1 µM under setting [1] was found to be 31%. On the same count and under the same terms, next, `CC(O)CNC(=O)c1cnc(N)c(OCc2c(Cl)cccc2Cl)c1` (stereo not shown): 49%; `Cc1cnc(CNC(=O)c2cnc(N)c(OCc3c(Cl)cccc3Cl)c2)cn1`: 33%. Take `NC(=O)C1CCN(C(=O)c2cnc(N)c(OCc3c(Cl)cccc3Cl)c2)CC1`: the inhibition at 1 µM under setting [1] was determined as 29%. As to `Nc1ncc(C(=O)NCCCN2CCCC2=O)cc1OCc1c(Cl)cccc1Cl`, the inhibition at 1 µM under setting [1] is 34%. For `CC(CCCC(C)(C)O)NC(=O)c1cnc(N)c(OCc2c(Cl)cccc2Cl)c1` (stereo not shown), the inhibition at 1 µM under setting [1] was determined as 35%.

For the compound `Nc1ncc(C(=O)NCCc2ccc(O)cc2)cc1OCc1c(Cl)cccc1Cl`, the inhibition at 1 µM under setting [1] is 34%. With `Nc1ncc(C(=O)NCc2ccc(F)cc2)cc1OCc1c(Cl)cccc1Cl`, under setting [1], the inhibition at 1 µM stood at 32%. For the compound `CN(C)CCNC(=O)c1cnc(N)c(OCc2c(Cl)cccc2Cl)c1`, the inhibition at 1 µM under setting [1] was 29%. With `CC(C)CCNC(=O)c1cnc(N)c(OCc2c(Cl)cccc2Cl)c1`, under setting [1], the inhibition at 1 µM is 26%. In the case of `Nc1ncc(C(=O)NCCc2c[nH]c3ccc(O)cc23)cc1OCc1c(Cl)cccc1Cl`, under setting [1], the inhibition at 1 µM worked out at 29%. Regarding `Nc1ncc(C(=O)NCC(F)(F)F)cc1OCc1c(Cl)cccc1Cl`, the inhibition at 1 µM under setting [1] worked out at 30%. With `CN1CCC(N(C)C(=O)c2cnc(N)c(OCc3c(Cl)cccc3Cl)c2)C1` (stereo not shown), the inhibition at 1 µM under setting [1] worked out at 33%. On to `Nc1ncc(C(=O)NCc2ccc(OC(F)(F)F)cc2)cc1OCc1c(Cl)cccc1Cl`, for which, under setting [1], the inhibition at 1 µM was determined as 24%.

As for `Nc1ncc(C(=O)N2CCC(O)C2)cc1OCc1c(Cl)cccc1Cl` (stereo not shown), under setting [1], the inhibition at 1 µM was 83%.

In the case of `Nc1ncc(C(=O)NC[C@H]2CCCC[C@H]2O)cc1OCc1c(Cl)cccc1Cl`, the inhibition at 1 µM under setting [1] stood at 24%. Turning to `Nc1ncc(C(=O)N[C@@H]2CCCC[C@H]2CO)cc1OCc1c(Cl)cccc1Cl`, the inhibition at 1 µM under setting [1] is 24%. In the case of `Nc1ncc(C(=O)N[C@@H]2c3ccccc3C[C@@H]2O)cc1OCc1c(Cl)cccc1Cl`, the inhibition at 1 µM under setting [1] turned out to be 23%. The same measure, in the same setting: next, `Nc1ncc(C(=O)N2CCC(O)(Cc3ccccc3)CC2)cc1OCc1c(Cl)cccc1Cl`: 62%. `Nc1ncc(C(=O)N2CCC(=O)CC2)cc1OCc1c(Cl)cccc1Cl`: testing at 1 µM gave an inhibition of 44%. With `COc1cc(CCNC(=O)c2cnc(N)c(OCc3c(Cl)cccc3Cl)c2)ccc1O`, the inhibition at 1 µM under setting [1] was 32%.

Take `Nc1ncc(C(=O)NCC2COc3ccccc3O2)cc1OCc1c(Cl)cccc1Cl` (stereo not shown): the inhibition at 1 µM under setting [1] is 34%. With `CC(NC(=O)c1cnc(N)c(OCc2c(Cl)cccc2Cl)c1)c1ccc(O)cc1` (stereo not shown), under setting [1], the inhibition at 1 µM was determined as 36%. Take `CC(C)c1ccc(COc2cc(-c3ccc(C(=O)N4CCC(N5CCCC5)CC4)cc3)cnc2N)cc1`: the “% inhibition” value is listed as “% inhibition = 32”.

For `Nc1ncc(-c2ccc(C(=O)N3CCC(N4CCCC4)CC3)cc2)cc1OCc1ccccc1-c1ccccc1`, the “% inhibition” value is on record as “% inhibition = 22”. Regarding `Nc1ncc(-c2ccc(C(=O)N3CCC(N4CCCC4)CC3)cc2)cc1OCc1ccccc1CS(=O)(=O)c1ccccc1`, the “% inhibition” value is given as “% inhibition = 11”. The same measure, in the same setting: next, `Nc1ccc(-c2ccc(C(=O)N3CCC(N4CCCC4)CC3)cc2)cc1OC1OC(=O)c2ccccc21` (stereo not shown): “% inhibition = 4”; `Nc1ncc(-c2ccc(C(=O)N3CCC(N4CCCC4)CC3)cc2)cc1OCc1ccc(-c2csnn2)cc1`: “% inhibition = 41”; `Nc1ncc(-c2ccc(C(=O)N3CCC(N4CCCC4)CC3)cc2)cc1OCc1cc(F)cc2c1OCOC2`: “% inhibition = 21”. For the compound `CC(Oc1nc(-c2ccc(C(=O)N3CCC[C@H]3CN3CCCC3)cc2)cnc1N)c1c(Cl)cccc1Cl` (stereo partly shown), the “% inhibition” value is “% inhibition = 14”.

In the case of `Nc1ncc(-c2ccc(C(=O)N3CCC(N4CCCC4)CC3)cc2)cc1OCc1ccc(F)c(C(F)(F)F)c1`, the “% inhibition” value is “% inhibition = 13”. On to `Nc1ncc(-c2ccc(C(=O)N3CCC(N4CCCC4)CC3)cc2)cc1OCc1cc(F)cc(C(F)(F)F)c1`, for which the “% inhibition” value was “% inhibition = 12”. `Nc1ncc(-c2ccc(C(=O)N3CCC(N4CCCC4)CC3)cc2)cc1OCc1c(F)cccc1C(F)(F)F`: the “% inhibition” value was “% inhibition = 31”.

As for `Nc1ncc(-c2ccc(C(=O)N3CCC(N4CCCC4)CC3)cc2)cc1OCc1cc(F)c(F)c(F)c1`, the “% inhibition” value was “% inhibition = 19”. In the case of `Nc1ncc(-c2ccc(C(=O)N3CCC(N4CCCC4)CC3)cc2)cc1OCc1ccccc1OC(F)F`, the “% inhibition” value is given as “% inhibition = 27”. In the case of `Nc1ncc(-c2ccc(C(=O)N3CCC(N4CCCC4)CC3)cc2)cc1OCc1ccc(C(F)(F)F)cc1F`, the “% inhibition” value is “% inhibition = 25”.

(Values after patent US8106197B2, “Aminoheteroaryl compounds as protein kinase inhibitors” (Pfizer Inc., priority 2003, dated 2012).)
